In US10081634B2, “Heterocyclic compound” (Daewoong Pharmaceutical Co., Ltd., priority 2014, dated 2018):
Where two headings read alike, the source gives them in different places.

How the values were obtained:
[1] = test system: NCI-H460 cells; assay: Cancer cell growth inhibition experiment (MTT assay); type: cell-based; conditions: Homo sapiens; NCI-H460 lung cancer cell line; 48 hours treatment; MTT cell viability
Procedure: NCI-H460 cells, lung cancer cell lines, were cultured in 5% CO2, 37° C. incubator using a flask for 75 cm^2 tissue culture. 96-well plates were used for the evaluation. These were prepared by differently applying at concentrations in the range of 6,000 to 12,000 cells/well according to the growth rate of the cell lines. The medium containing 5% FBS were dispensed in 200 μL/well and used. The medium were cultured for 24 hours. After confirming the cell status and dispensing form of a 96-well plate under a microscope, they were used for subsequent experiments. The compounds were evaluated at concentrations of 100, 30, 10, 3, 1, 0.3, 0.03, 0.01 μM. After removing the existing medium, the compounds with various concentrations were treated in an amount of 200 μL/well. The compounds-treated plates were further cultured for 48 hours, and the cell viabilities were measured by MTT assay to calculate IC50 values.
% Inhibition and IC50 values of the respective compounds were calculated and analyzed using Sigma Plot 8.0. The case where the derived IC50 is 5 μM or less is represented by “A”, the case where the IC50 is 5 to 30 μM is represented by “B”, and the case where the IC50 is 30 μM or higher is represented by “C”.

[2] = target: T1, PRS (prolyl-tRNA synthetase) (Homo sapiens, UniProt P07814); assay: In vitro PRS enzyme activity inhibition experiment ([3H]proline, liquid scintillation); type: biochemical
T1 construct: the portion corresponding to PRS in cDNA of EPRS was subcloned; made in house
T1 sequence (P07814 1007-1512 limits assumed): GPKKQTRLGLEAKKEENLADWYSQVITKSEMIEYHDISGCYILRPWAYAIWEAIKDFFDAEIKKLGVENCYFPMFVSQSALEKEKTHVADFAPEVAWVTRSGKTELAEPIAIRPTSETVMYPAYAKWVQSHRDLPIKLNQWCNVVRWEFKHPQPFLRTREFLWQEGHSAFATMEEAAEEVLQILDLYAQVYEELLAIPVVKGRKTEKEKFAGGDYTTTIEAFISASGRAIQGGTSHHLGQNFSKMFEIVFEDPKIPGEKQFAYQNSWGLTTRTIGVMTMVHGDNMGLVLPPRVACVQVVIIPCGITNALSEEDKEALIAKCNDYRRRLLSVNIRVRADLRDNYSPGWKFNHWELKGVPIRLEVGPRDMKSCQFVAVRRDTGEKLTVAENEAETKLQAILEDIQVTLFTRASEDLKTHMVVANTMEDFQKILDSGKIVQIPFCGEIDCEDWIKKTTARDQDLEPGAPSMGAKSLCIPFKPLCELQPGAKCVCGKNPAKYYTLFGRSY
Procedure: In order to confirm the biological activities of the compounds prepared in Examples, % inhibition or IC50 values of PRS enzyme ([…]) activities were calculated.
Specifically, the portion corresponding to PRS in cDNA of EPRS was subcloned, and the obtained high-purity PRS protein was purified and used in the experiment. The compounds (1 μM) prepared in Examples were added into the reaction buffer (20 mM KPO4 (pH 7.4), 6 mM MgAc, 5 mM ATP, […] tRNA, 0.5 mM DTT, 20 mCi[^3H]proline (1 mCi/mL)) and allowed to react at 37° C. for 5 to 10 minutes. The reaction was terminated with 3M paper that was previously dried by addition of 5% TCA. The radioactivity was measured using a liquid scintillation counter.
IC50 values of the respective compounds were calculated and analyzed using Microsoft Excel or Sigma Plot 8.0. In Table 1, the results are divided into A, B and C according to the range of IC50. The case where the derived IC50 is 100 nM or less is represented by “A”, the case where the IC50 is 100 to 500 nM is represented by “B”, and the case where the IC50 is 500 nM or higher is represented by “C”.

[3] = purified PRS protein subcloned from EPRS cDNA, 37° C., 5 to 10 minutes, read-out: PRS IC50

| Structure (SMILES) | IC50 [1] [µM] | IC50 [2, 3] [nM] | IC50 [2] [nM] |
| --- | --- | --- | --- |
| Cc1cc2ncn(CC(=O)C[C@H]3NCCC[C@@H]3O)c2cc1C [Example 9, 1-(5,6-dimethyl-1H-benzo[d]imidazol-1-yl)-3-((2R,3S)-3-hydroxypiperidin-2-yl)propan-2-one] | ≥ 30 | < 100 |  |
| O=C(C[C@H]1NCCC[C@@H]1O)Cn1c(CO)nc2cc(OC(F)(F)F)ccc21 [Example 60, 1-(2-(hydroxymethyl)-5-(trifluoromethoxy)-1H-benzo[d]imidazol-1-yl)-3-((2R,3S)-3-hydroxypiperidin-2-yl)propan-2-one] | ≥ 30 | > 500 |  |
| Cc1cc(Br)cc2c1ncn2CC(=O)C[C@H]1NCCC[C@@H]1O [Example 23, 1-(6-bromo-4-methyl-1H-benzo[d]imidazol-1-yl)-3-((2R,3S)-3-hydroxypiperidin-2-yl)propan-2-one] | 5 to 30 | < 100 |  |
| OCc1nc2cc(Cl)c(Cl)cc2n1CC(O)C[C@H]1NCCC[C@@H]1O (stereo partly drawn) [Example 88, (2R,3S)-2-(3-(5,6-dichloro-2-(hydroxymethyl)-1H-benzo[d]imidazol-1-yl)-2-hydroxypropyl)piperidin-3-ol] | ≥ 30 | 100 to 500 |  |
| O=C(C[C@H]1NCCC[C@@H]1O)Cn1cnc2cc(F)c(Br)cc21 [Example 26, 1-(6-bromo-5-fluoro-1H-benzo[d]imidazol-1-yl)-3-((2R,3S)-3-hydroxypiperidin-2-yl)propan-2-one] | ≤ 5 | < 100 |  |
| Cc1ccc2c(ncn2CC(=O)C[C@H]2NCCC[C@@H]2O)c1Br [Example 19, 1-(4-bromo-5-methyl-1H-benzo[d]imidazol-1-yl)-3-((2R,3S)-3-hydroxypiperidin-2-yl)propan-2-one] | 5 to 30 | < 100 |  |
| Cc1nc2cc(Cl)c(Cl)cc2n1CC(=O)C[C@H]1NCCC[C@@H]1O [Example 46, 1-(5,6-dichloro-2-methyl-1H-benzo[d]imidazol-1-yl)-3-((2R,3S)-3-hydroxypiperidin-2-yl)propan-2-one] | ≥ 30 | < 100 |  |
| O=C(C[C@H]1NCCC[C@@H]1O)Cn1cnc2cncc(Br)c21 [Example 33, 1-(7-bromo-1H-imidazo[4,5-c]pyridin-1-yl)-3-((2R,3S)-3-hydroxypiperidin-2-yl)propan-2-one] | 5 to 30 | < 100 |  |
| O=C(C[C@H]1NCCC[C@@H]1O)Cn1cnc2c(Cl)c(Cl)ccc21 [Example 12, 1-(4,5-dichloro-1H-benzo[d]imidazol-1-yl)-3-((2R,3S)-3-hydroxypiperidin-2-yl)propan-2-one] | ≤ 5 | < 100 |  |
| OC(C[C@H]1NCCC[C@@H]1O)Cn1cnc2c(Cl)c(Br)ccc21 (stereo partly drawn) [Example 71, (2R,3S)-2-(3-(5-bromo-4-chloro-1H-benzo[d]imidazol-1-yl)-2-hydroxypropyl)piperidin-3-ol] | 5 to 30 | < 100 |  |
| O[C@H]1CCCN[C@@H]1CC(F)(F)Cn1cnc2cc(Cl)c(Cl)cc21 [Example 82, (2R,3S)-2-(3-(5,6-dichloro-1H-benzo[d]imidazol-1-yl)-2,2-difluoropropyl)piperidin-3-ol] | ≥ 30 | > 500 |  |
| Cc1ccc2c(ncn2CC(=O)C[C@H]2NCCC[C@@H]2O)c1C [Example 16, 1-(4,5-dimethyl-1H-benzo[d]imidazol-1-yl)-3-((2R,3S)-3-hydroxypiperidin-2-yl)propan-2-one] | 5 to 30 | < 100 |  |
| O=C(C[C@H]1NCCC[C@@H]1O)Cn1cnc2cc(Br)cnc21 [Example 37, 1-(6-bromo-3H-imidazo[4,5-b]pyridin-3-yl)-3-((2R,3S)-3-hydroxypiperidin-2-yl)propan-2-one] | ≤ 5 | < 100 |  |
| O=C(C[C@H]1NCCC[C@@H]1O)Cn1cnc2c(C(F)(F)F)c(Br)ccc21 [Example 18, 1-(5-bromo-4-(trifluoromethyl)-1H-benzo[d]imidazol-1-yl)-3-((2R,3S)-3-hydroxypiperidin-2-yl)propan-2-one] | 5 to 30 | < 100 |  |
| O=C(C[C@H]1NCCC[C@@H]1O)Cn1cnc2c(Cl)c(F)ccc21 [Example 21, 1-(4-chloro-5-fluoro-1H-benzo[d]imidazol-1-yl)-3-((2R,3S)-3-hydroxypiperidin-2-yl)propan-2-one] | 5 to 30 | 100 to 500 |  |
| O=C(C[C@H]1NCCC[C@@H]1O)Cn1cnc2cc(F)c(F)cc21 [Example 10, 1-(5,6-difluoro-1H-benzo[d]imidazol-1-yl)-3-((2R,3S)-3-hydroxypiperidin-2-yl)propan-2-one] | 5 to 30 | 100 to 500 |  |
| O=C(C[C@H]1NCCC[C@@H]1O)Cn1cnc2ccc(Br)cc21 [Example 5, 1-(6-bromo-1H-benzo[d]imidazol-1-yl)-3-((2R,3S)-3-hydroxypiperidin-2-yl)propan-2-one] | 5 to 30 | < 100 |  |
| O=C(C[C@H]1NCCC[C@@H]1O)Cn1c(CO)nc2ccc(Br)cc21 [Example 58, 1-(6-bromo-2-(hydroxymethyl)-1H-benzo[d]imidazol-1-yl)-3-((2R,3S)-3-hydroxypiperidin-2-yl)propan-2-one] | 5 to 30 | < 100 |  |
| Cc1c(C#N)cnc2c1ccn2CC(=O)C[C@H]1NCCC[C@@H]1O [Example 95, 1-(3-((2R,3S)-3-hydroxypiperidin-2-yl)-2-oxopropyl)-4-methyl-1H-pyrrolo[2,3-b]pyridin-5-carbonitrile] | ≥ 30 |  | > 500 |
| O=C(C[C@H]1NCCC[C@@H]1O)Cn1ccc2ccc(Br)nc21 [Example 92, 1-(6-bromo-1H-pyrrolo[2,3-b]pyridin-1-yl)-3-((2R,3S)-3-hydroxypiperidin-2-yl)propan-2-one] | ≥ 30 | > 500 |  |
| CN(C)Cc1nc2cc(Cl)c(Cl)cc2n1CC(=O)C[C@H]1NCCC[C@@H]1O [Example 51, 1-(5,6-dichloro-2-((dimethylamino)methyl)-1H-benzo[d]imidazol-1-yl)-3-((2R,3S)-3-hydroxypiperidin-2-yl)propan-2-one] | ≥ 30 | > 500 |  |
| Cc1cc(Cl)cc2c1ncn2CC(=O)C[C@H]1NCCC[C@@H]1O [Example 24, 1-(6-chloro-4-methyl-1H-benzo[d]imidazol-1-yl)-3-((2R,3S)-3-hydroxypiperidin-2-yl)propan-2-one] | 5 to 30 | < 100 |  |
| O=C(C[C@H]1NCCC[C@@H]1O)Cn1c(CO)nc2cc(Br)ccc21 [Example 57, 1-(5-bromo-2-(hydroxymethyl)-1H-benzo[d]imidazol-1-yl)-3-((2R,3S)-3-hydroxypiperidin-2-yl)propan-2-one] | 5 to 30 | 100 to 500 |  |
| O=C(C[C@H]1NCCC[C@@H]1O)Cn1cnc2nc(C(F)(F)F)ccc21 [Example 30, 1-((2R,3S)-3-hydroxypiperidin-2-yl)-3-(5-(trifluoromethyl)-1H-imidazo[4,5-b]pyridin-1-yl)propan-2-one] | ≥ 30 | > 500 |  |
| Cc1c(Br)ccc2c1ncn2CC(O)C[C@H]1NCCC[C@@H]1O (stereo partly drawn) [Example 89, (2R,3S)-2-(3-(5-bromo-4-methyl-1H-benzo[d]imidazol-1-yl)-2-hydroxypropyl)piperidin-3-ol] | ≥ 30 | < 100 |  |
| O=C(C[C@H]1NCCC[C@@H]1O)Cn1c(CO)nc2ccccc21 [Example 56, 1-(2-(hydroxymethyl)-1H-benzo[d]imidazol-1-yl)-3-((2R,3S)-3-hydroxypiperidin-2-yl)propan-2-one] | ≥ 30 | < 100 |  |
| O[C@H]1CCCN[C@@H]1CC(F)Cn1cnc2cc(Cl)c(Cl)cc21 (stereo partly drawn) [Example 81, (2R,3S)-2-(3-(5,6-dichloro-1H-benzo[d]imidazol-1-yl)-2-fluoropropyl)piperidin-3-ol] | ≥ 30 | > 500 |  |
